Measurements reported in US10506810B2, “Synergistic herbicidal composition” (QINGDAO KINGAGROOT RESISTANT WEED MANAGEMENT CO., LTD., priority 2015, dated 2019).
Read-outs that look alike come from different tables or passages of the source.

What was measured:
[1] = system: Capsella bursa-pastoris; test: pot-culture method, stem and leaf treatment in greenhouse, fresh weight inhibition rate 20 days after treatment (Gowing method); format: in vivo
Experimental: (§1) Capsella bursa-pastoris, Myosoton aquaticum, Alopecurus japonicus were collected from corn fields in Huangdao Experimental Base of Shandong Province.
(§2) The above weeds were cultivated by a pot culture method. […] Full and uniform weed seeds were selected, soaked in warm water at 25° C. for 6 hours, and germinated in a 28° C. biochemical incubator (darkness). […] A certain amount of water was added to the enamel pan regularly to keep the soil moist.
(§3) The technical materials were all dissolved in acetone, and diluted with an aqueous solution containing 0.1% emulsifier T-80. The dilution is performed as required.
(§4) A ratio of the active ingredient A to the active ingredient B and amounts thereof in each group depends on the characteristics and toxicity of the two agents, as well as the main application purpose of a corresponding formulation. Based on the pre-tests in this study, the dosage of the active ingredient A and the active ingredient B applied alone and in combination were shown in the tables, and a total 15 groups were designed. Water containing the solvent and emulsifier same with the above groups but free of the agents was used as a blank control.
(§5) 3 pots with 20 weed seeds per pot were treated in one treatment with […] per treatment, that is, a total of 60 weeds were treated in one treatment.
(§6) The agents were used for only once in the experiment. In the stage of weeds with 2 leaves and 1 core, the weeds were thinned out to maintain 15 weeds per pot and 45 weeds for each treatment, then continued to be cultured to 3-5-leaves stage of Capsella bursa-pastoris and Myosoton aquaticum, and 3-leaves and 1-core stage of Alopecurus japonicus, and treated.
(§7) The well-cultured weeds were evenly placed on a platform with an area of 0.5 m^2, and a solution of agents was sprayed on the stems and leaves thereof by the 3WP-2000-type walking spray tower at a dosage of 30 kg/ha and at a spray pressure of 0.3 MPa. After all the solution was sprayed, the valve was closed. After 30 seconds, the door of the spray tower was opened, and the nutritional bowl was taken out. Then the valve was opened, and the spray tube was cleaned by spraying 50 ml of water.
(§8) A pot-culture method was employed. For the cultivation of weeds, please refer to the Section 1.2, and “Pesticide guidelines for laboratory bioactivity tests—herbicides”. As to a method for applying agents, please refer to the section 2.3.2, that is, a method for treating stems and leaves was employed.
(§9) A method for investigating absolute number was employed, wherein whole seedlings of survival weeds were cut off with a blade along the soil surface, and the fresh weight of the weeds was weighed with an analytical balance. For dead weeds, the fresh weight thereof was zero.
(§10) The investigation was performed after 20 days of the treatment for only once.
(§11) Wherein, in the formula, X represented the fresh weight inhibition rate of the active ingredient A in a dosage of P, and Y represented the fresh weight inhibition rate of the active ingredient B in a dosage of Q.

[2] = system: Myosoton aquaticum; test: as above; format: in vivo
Experimental: as §1, §2, §3, §4, §5, §6, §7, §8, §9, §10, §11

[3] = Capsella bursa-pastoris, 480 h, read-out: actual fresh weight inhibition rate
[4] = Myosoton aquaticum, 480 h, read-out: actual fresh weight inhibition rate

Structure (SMILES): Cc1ccc(NC(=O)N(C)C)cc1Cl [chlorotoluron]
- pest or weed control at 1500 g/ha ([1]; Capsella bursa-pastoris, 480 h, dosage 1500 g/hm^2, read-out: actual fresh weight inhibition rate): 33.5%
- pest or weed control at 2250 g/ha ([1]; Capsella bursa-pastoris, 480 h, dosage 2250 g/hm^2, read-out: actual fresh weight inhibition rate): 43.7%
- pest or weed control at 3000 g/ha ([1]; Capsella bursa-pastoris, 480 h, dosage 3000 g/hm^2, read-out: actual fresh weight inhibition rate): 57.3%
- pest or weed control at 1500 g/ha ([2]; Myosoton aquaticum, 480 h, dosage 1500 g/hm^2, read-out: actual fresh weight inhibition rate): 34.7%
- pest or weed control at 2250 g/ha ([2]; Myosoton aquaticum, 480 h, dosage 2250 g/hm^2, read-out: actual fresh weight inhibition rate): 43.8%
- pest or weed control at 3000 g/ha ([2]; Myosoton aquaticum, 480 h, dosage 3000 g/hm^2, read-out: actual fresh weight inhibition rate): 60.1%

Structure (SMILES): O=C(Nc1ccc(F)cc1F)c1cccnc1Oc1cccc(C(F)(F)F)c1 [diflufenican]
- pest or weed control at 40 g/ha ([1]; 480 h, Capsella bursa-pastoris, 40 g/hm^2, read-out: actual fresh weight inhibition rate): 33.1%
- pest or weed control at 80 g/ha ([1]; 480 h, Capsella bursa-pastoris, 80 g/hm^2, read-out: actual fresh weight inhibition rate): 48.2%
- pest or weed control at 120 g/ha ([1]; 480 h, Capsella bursa-pastoris, 120 g/hm^2, read-out: actual fresh weight inhibition rate): 63.4%
- pest or weed control at 40 g/ha ([2]; Myosoton aquaticum, 480 h, Myosoton aquaticum, 40 g/hm^2, read-out: actual fresh weight inhibition rate): 24.1%
- pest or weed control at 80 g/ha ([2]; Myosoton aquaticum, 480 h, Myosoton aquaticum, 80 g/hm^2, read-out: actual fresh weight inhibition rate): 46.2%
- pest or weed control at 120 g/ha ([2]; Myosoton aquaticum, 480 h, Myosoton aquaticum, 120 g/hm^2, read-out: actual fresh weight inhibition rate): 66.5%

Structure (SMILES): CN(C)C(=O)SCCCCOc1ccccc1 [fenothiocarb]
- pest or weed control at 40 g/ha [1, 3]: 0%
- pest or weed control at 65 g/ha [1, 3]: 0%
- pest or weed control at 90 g/ha [1, 3]: 0%
- pest or weed control at 40 g/ha [2, 4]: 70.3%
- pest or weed control at 65 g/ha [2, 4]: 84.5%
- pest or weed control at 90 g/ha [2, 4]: 97.3%

Structure (SMILES): COc1ncc(F)c2nc(S(=O)(=O)Nc3c(F)cccc3F)nn12 [florasulam]
- actual fresh weight inhibition rate ([1]; Capsella bursa-pastoris, 2.5 g/hm^2): 45.8%
- actual fresh weight inhibition rate ([1]; Capsella bursa-pastoris, 5 g/hm^2): 60.4%
- actual fresh weight inhibition rate ([2]; Myosoton aquaticum, 2.5 g/hm^2): 28.3%
- actual fresh weight inhibition rate ([2]; Myosoton aquaticum, 5 g/hm^2): 41.9%

Structure (SMILES): O=C(O)COC(=O)c1cc(Oc2ccc(C(F)(F)F)cc2Cl)ccc1[N+](=O)[O-] [fluoroglycofen, reference compound]
- actual fresh weight inhibition rate (%) ([1]; dosage 5 g/hm^2): 47.4%
- actual fresh weight inhibition rate (%) ([1]; dosage 10 g/hm^2): 61.6%
- actual fresh weight inhibition rate (%) ([1]; dosage 15 g/hm^2): 70.5%
- actual fresh weight inhibition rate (%) ([2]; dosage 5 g/hm^2): 37.9%
- actual fresh weight inhibition rate (%) ([2]; dosage 10 g/hm^2): 41.8%
- actual fresh weight inhibition rate (%) ([2]; dosage 15 g/hm^2): 55.4%

Structure (SMILES): Nc1c(Cl)c(F)nc(OCC(=O)O)c1Cl [fluroxypyr, reference compound]
- actual fresh weight inhibition rate (%) ([1]; dosage 100 g/hm^2): 10.1%
- actual fresh weight inhibition rate (%) ([1]; dosage 150 g/hm^2): 18.3%
- actual fresh weight inhibition rate (%) ([1]; dosage 200 g/hm^2): 28.7%
- actual fresh weight inhibition rate (%) ([2]; dosage 100 g/hm^2): 90.1%
- actual fresh weight inhibition rate (%) ([2]; dosage 150 g/hm^2): 100%
- actual fresh weight inhibition rate (%) ([2]; dosage 200 g/hm^2): 100%

Structure (SMILES): COC(=O)c1nc(-c2ccc(Cl)c(OC)c2F)cc(N)c1Cl [halauxifen-methyl, reference compound]
- actual fresh weight inhibition rate (%) ([1]; dosage 5 g/hm^2): 59.7%
- actual fresh weight inhibition rate (%) ([1]; dosage 10 g/hm^2): 71.4%
- actual fresh weight inhibition rate (%) ([2]; dosage 5 g/hm^2): 17.5%
- actual fresh weight inhibition rate (%) ([2]; dosage 10 g/hm^2): 35.6%

Structure (SMILES): COC(=O)c1c(Cl)nn(C)c1S(=O)(=O)NC(=O)Nc1nc(OC)cc(OC)n1 [halosulfuron-methyl]
- pest or weed control at 30 g/ha [1, 3]: 17.9%
- pest or weed control at 50 g/ha [1, 3]: 27.8%
- pest or weed control at 70 g/ha [1, 3]: 44.1%
- pest or weed control at 30 g/ha [2, 4]: 14.5%
- pest or weed control at 50 g/ha [2, 4]: 34.9%
- pest or weed control at 70 g/ha [2, 4]: 50.5%

Structure (SMILES): CC(C)c1ccc(NC(=O)N(C)C)cc1 [isoproturon]
- pest or weed control at 300 g/ha ([1]; 480 h, Capsella bursa-pastoris, 300 g/hm^2, read-out: actual fresh weight inhibition rate): 21.7%
- pest or weed control at 750 g/ha ([1]; 480 h, Capsella bursa-pastoris, 750 g/hm^2, read-out: actual fresh weight inhibition rate): 33.7%
- pest or weed control at 1200 g/ha ([1]; 480 h, Capsella bursa-pastoris, 1200 g/hm^2, read-out: actual fresh weight inhibition rate): 57.2%
- pest or weed control at 300 g/ha ([2]; Myosoton aquaticum, 480 h, Myosoton aquaticum, 300 g/hm^2, read-out: actual fresh weight inhibition rate): 19.4%
- pest or weed control at 750 g/ha ([2]; Myosoton aquaticum, 480 h, Myosoton aquaticum, 750 g/hm^2, read-out: actual fresh weight inhibition rate): 26.4%
- pest or weed control at 1200 g/ha ([2]; Myosoton aquaticum, 480 h, Myosoton aquaticum, 1200 g/hm^2, read-out: actual fresh weight inhibition rate): 47.5%
